Source: ChEMBL document CHEMBL5149975, “Freshwater Fungi as a Source of Chemical Diversity: A Review” (J Nat Prod, 2021)
pIC50: −log10 of the molar value. Converted amounts (≈) assume the structure as drawn. Blank lines part the entries; values can stand above or below the compound they belong to.

What was measured:
[1] = molecular target: T1, Tyrosine-protein phosphatase non-receptor type 1 (Homo sapiens, UniProt P18031); assay: Inhibition of human recombinant PTP1B (1 to 322 residues) expressed in Escherichia coli using pNPP as substrate incubated for 10 mins followed by substrate addition and measured after 30 mins by microplate reader based analysis
T1 sequence (P18031 whole entry): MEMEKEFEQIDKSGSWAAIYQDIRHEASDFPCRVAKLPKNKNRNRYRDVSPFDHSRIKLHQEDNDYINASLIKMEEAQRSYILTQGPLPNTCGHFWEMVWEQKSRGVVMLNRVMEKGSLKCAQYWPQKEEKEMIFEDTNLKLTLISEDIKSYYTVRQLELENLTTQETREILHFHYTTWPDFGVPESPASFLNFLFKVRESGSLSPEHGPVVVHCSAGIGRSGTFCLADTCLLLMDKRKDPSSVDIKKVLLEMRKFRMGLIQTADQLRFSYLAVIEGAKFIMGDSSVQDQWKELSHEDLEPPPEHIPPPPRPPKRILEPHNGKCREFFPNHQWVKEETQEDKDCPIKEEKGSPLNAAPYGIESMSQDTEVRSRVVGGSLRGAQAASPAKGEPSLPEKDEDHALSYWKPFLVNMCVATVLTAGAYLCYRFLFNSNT

Staphylococcus aureus [2] = assay: Antibacterial activity against Staphylococcus aureus ATCC25923 measured after 18 hrs by agar dilution method; format: functional
Candida albicans = assay: Antifungal activity against clinical isolate Candida albicans measured after 24 hrs by agar dilution method; format: functional
Staphylococcus aureus [3] = assay: Antibacterial activity against Staphylococcus aureus ATCC 6538 inhibition of zones at 50 ug per disk by standard disk assay; format: functional; conditions: read-out: IZ
[4] = molecular target: T2, Tyrosine-protein phosphatase non-receptor type 1 (Homo sapiens) (UniProt P18031); assay: Inhibition of human recombinant PTP1B (1 to 322 residues) expressed in Escherichia coli using pNPP as substrate at 36 uM incubated for 10 mins followed by substrate addition and measured after 30 mins by microplate reader based analysis relative to control; conditions: time 40.0 min
T2 sequence (whole entry): T1 sequence (P18031 whole entry)

[5] = molecular target: T1, Tyrosine-protein phosphatase non-receptor type 1; assay: Inhibition of PTP1B (unknown origin)
Pseudomonas aeruginosa = assay: Antimicrobial activity against Pseudomonas aeruginosa; format: functional
Bacillus cereus = assay: Antibacterial activity against Bacillus cereus by microtiter plate method; format: functional
Vibrio anguillarum = assay: Antibacterial activity against Vibrio anguillarum by microtiter plate method; format: functional
Vibrio parahaemolyticus = assay: Antibacterial activity against Vibrio parahaemolyticus by microtiter plate method; format: functional
[6] = Antioxidant activity of the compound by DPPH assay; format: functional
Staphylococcus aureus [7] = assay: Antimicrobial activity against Staphylococcus aureus; format: functional
[8] = molecular target: T2, Tyrosine-protein phosphatase non-receptor type 1 (Homo sapiens); assay: Inhibition of PTP1B (unknown origin) at 15.7 uM relative control
[9] = test system: Mycolicibacterium smegmatis; assay: Antimicrobial activity against Mycobacterium smegmatis; format: functional

Compound: COc1cc(C)c(Oc2cc(C)cc(O)c2)c(O)c1 [CYPERIN]
pIC50 [1]: 4.77

Compound: O=C1c2c(O)cc(CO)cc2COc2c(O)c(O)cc(O)c21
zone of inhibition at 50 µg/disc (Staphylococcus aureus [3]): 11 mm

Compound: COc1ccc(OC)c2c1OCc1cc(CO)cc(O)c1C2=O
zone of inhibition at 50 µg/disc (Staphylococcus aureus [3]): 11 mm

Compound: Cc1cc(O)c2c(c1)COc1c(O)ccc(O)c1C2=O
zone of inhibition at 50 µg/disc (Staphylococcus aureus [3]): 11 mm

Compound: COC(=O)[C@@]12Oc3c(-c4ccc5c(c4O)C(=O)C4=C(O)C[C@H](C)[C@H](O)[C@]4(C(=O)OC)O5)ccc(O)c3C(=O)C1=C(O)C[C@H](C)[C@H]2O
pIC50 [5]: 5.23

Compound: O=c1[nH]c2ccccc2c(-c2ccccc2)c1O
MIC (Bacillus cereus): 25 µM (≈ 5.93 µg/mL)
MIC (Vibrio anguillarum): 25 µM (≈ 5.93 µg/mL)
MIC (Vibrio parahaemolyticus): 25 µM (≈ 5.93 µg/mL)

Compound: O=c1c(O)c(-c2ccc(O)c(O)c2)oc2cc(O)cc(O)c12 [QUERCETIN]
pIC50 [6]: 5.24

Compound: COc1ccc(OC)c2c1OCc1cc(C)cc(O)c1C2=O
zone of inhibition at 50 µg/disc (Staphylococcus aureus [3]): 11 mm

Compound: COC(=O)[C@@]12Oc3ccc(-c4ccc5c(c4O)C(=O)C4=C(O)C[C@H](C)[C@@H](O)[C@]4(C(=O)OC)O5)c(O)c3C(=O)C1=C(O)C[C@H](C)[C@H]2O
inhibition [8]: 40%

Compound: COC(=O)[C@@]12Oc3ccc(-c4ccc5c(c4O)C(=O)C4=C(O)C[C@H](C)[C@H](O)[C@]4(C(=O)OC)O5)c(O)c3C(=O)C1=C(O)C[C@H](C)[C@H]2O
pIC50 [5]: 5.02

Compound: COc1cc(O)c(OC)c2c1C(=O)c1c(O)cc(C)cc1CO2
zone of inhibition at 50 µg/disc (Staphylococcus aureus [3]): 11 mm

More lines, now with the values ahead:

MIC (Staphylococcus aureus [2]): > 128 µg/mL
MIC (Candida albicans): > 128 µg/mL
Compound: C=C1CCC[C@@]2(C)CC[C@H](C(C)(C)O)CC12 (stereo partly drawn)

pIC50 [1]: 4.89
Compound: COc1cc(C)c(Oc2cc(C)cc(O)c2O)c(O)c1

inhibition [4]: 32%
Compound: COc1cc(O)cc(C)c1Oc1cc(C)cc(O)c1O

MIC (Staphylococcus aureus [2]): > 128 µg/mL
MIC (Candida albicans): > 128 µg/mL
Compound: C=C1CCC[C@@]2(C)CC(O)[C@H](C(C)(C)O)C[C@]12O (stereo partly drawn)

MIC (Staphylococcus aureus [2]): > 128 µg/mL
MIC (Candida albicans): > 128 µg/mL
Compound: C=C1CCC[C@@]2(C)CC[C@H](C(C)(C)O)C[C@]12O

MIC (Pseudomonas aeruginosa): 0.8 µM (≈ 0.358 µg/mL)
Compound: CC1(C)C=Cc2c(ccc3c2N[C@]2(C[C@@]45NC(=O)[C@]6(CCCN6C4=O)CC5C2(C)C)C3=O)O1 (stereo partly drawn)

MIC (Staphylococcus aureus [7]): 33 µg/mL
Compound: COc1cc(O)c2c(c1C)[C@H](C)C(=O)OC2=O

MIC (Staphylococcus aureus [2]): > 128 µg/mL
MIC (Candida albicans): > 128 µg/mL
Compound: C=C1CCC[C@]2(C)C1C[C@@H](C(C)(C)O)C[C@@H]2O (stereo partly drawn)

MIC (Staphylococcus aureus [2]): > 128 µg/mL
MIC (Candida albicans): > 128 µg/mL
Compound: C=C1C[C@@H](O)C[C@@]2(C)CC[C@H](C(C)(C)O)CC12 (stereo partly drawn)

MIC (Staphylococcus aureus [7]): 86 µM
MIC [9]: 172 µM (≈ 59.9 µg/mL)
Compound: O=C1C=C2OC3(O)CC(=O)c4c(O)cccc4C3=C2c2cccc(O)c21 (stereo not drawn)

pIC50 [6]: 5.55
Compound: COC(=O)[C@H]1C[C@@H](C)[C@H]2[C@@H](C=C[C@H](C)[C@@H]2/C=C/C=C/C(=O)O)[C@@H]1C

pIC50 [5]: 5.22
Compound: COC(=O)[C@@]12Oc3ccc(Oc4cccc5c4C(=O)C4=C(O)C[C@H](C)[C@H](O)[C@]4(C(=O)OC)O5)c(O)c3C(=O)C1=C(O)C[C@H](C)[C@H]2O

MIC (Staphylococcus aureus [2]): > 128 µg/mL
MIC (Candida albicans): > 128 µg/mL
Compound: C=C1CCC[C@@]2(C)C[C@H](O)[C@H](C(C)(C)O)C[C@@]12O
